{"source": "patent EP4549575A1", "about": "(priority 2023, dated 2025)", "test_system": "P. infestans", "type": "cell-based", "settings": "P. infestans mycelium in vitro; for PPI (%) mycelium: Ala-scan of Ac-LP20 and CP20-Met-Ala; for PPI (%) micelio: Ala-scan of Ac-LP32", "note": "Square brackets hold non-standard residues; d marks the D form. Peptide text beside a SMILES is read from it. βAla = NCCC(=O)O", "data": [{"smiles": "CSCC[C@H](NC(=O)[C@H](Cc1c[nH]c2ccccc12)NC(=O)[C@H](C)NC(=O)CCNC(C)=O)C(=O)N[C@@H](CC(C)C)C(=O)N[C@H](C(=O)N[C@@H](Cc1ccc(O)cc1)C(=O)N[C@@H](CCCNC(=N)N)C(=O)N[C@@H](CCCNC(=N)N)C(N)=O)C(C)C", "note": "[Ac-LP20-Ala2, Ac-βA-AWMLVYRR-CONH2] (Ac-[βAla]AWMLVYRR-NH2)", "values": [{"measurement": "PPI (%) mycelium", "value": "38.75 ± 7.72", "unit": "%"}]}, {"smiles": "CSCC[C@H](NC(=O)[C@H](C)NC(=O)[C@H](CCCNC(=N)N)NC(=O)CCNC(C)=O)C(=O)N[C@@H](CC(C)C)C(=O)N[C@H](C(=O)N[C@@H](Cc1ccc(O)cc1)C(=O)N[C@@H](CCCNC(=N)N)C(=O)N[C@@H](CCCNC(=N)N)C(N)=O)C(C)C", "note": "[Ac-LP20-Ala3, Ac-βA-RAMLVYRR-CONH2] (Ac-[βAla]RAMLVYRR-NH2)", "values": [{"measurement": "PPI (%) mycelium", "value": "100 ± 0", "unit": "%"}]}, {"smiles": "CSCC[C@H](NC(=O)[C@H](Cc1c[nH]c2ccccc12)NC(=O)[C@H](CCCNC(=N)N)NC(=O)CCNC(C)=O)C(=O)N[C@@H](C)C(=O)N[C@H](C(=O)N[C@@H](Cc1ccc(O)cc1)C(=O)N[C@@H](CCCNC(=N)N)C(=O)N[C@@H](CCCNC(=N)N)C(N)=O)C(C)C", "note": "[Ac-LP20-Ala5, Ac-βA-RWMAVYRR-CONH2] (Ac-[βAla]RWMAVYRR-NH2)", "values": [{"measurement": "PPI (%) mycelium", "value": "70.73 ± 0", "unit": "%"}]}, {"smiles": "CSCC[C@H](NC(=O)[C@H](Cc1c[nH]c2ccccc12)NC(=O)[C@H](CCCNC(=N)N)NC(=O)CCNC(C)=O)C(=O)N[C@@H](CC(C)C)C(=O)N[C@@H](C)C(=O)N[C@@H](Cc1ccc(O)cc1)C(=O)N[C@@H](CCCNC(=N)N)C(=O)N[C@@H](CCCNC(=N)N)C(N)=O", "note": "[Ac-LP20-Ala6, Ac-βA-RWMLAYRR-CONH2] (Ac-[βAla]RWMLAYRR-NH2)", "values": [{"measurement": "PPI (%) mycelium", "value": "62.2 ± 7.54", "unit": "%"}]}, {"smiles": "CSCC[C@H](NC(=O)[C@H](Cc1c[nH]c2ccccc12)NC(=O)[C@H](CCCNC(=N)N)NC(=O)CCNC(C)=O)C(=O)N[C@@H](CC(C)C)C(=O)N[C@H](C(=O)N[C@@H](C)C(=O)N[C@@H](CCCNC(=N)N)C(=O)N[C@@H](CCCNC(=N)N)C(N)=O)C(C)C", "note": "[Ac-LP20-Ala7, Ac-βA-RWMLVARR-CONH2] (Ac-[βAla]RWMLVARR-NH2)", "values": [{"measurement": "PPI (%) mycelium", "value": "17.48 ± 12.34", "unit": "%"}]}, {"smiles": "CSCC[C@H](NC(=O)[C@H](Cc1c[nH]c2ccccc12)NC(=O)[C@H](CCCNC(=N)N)NC(=O)CCNC(C)=O)C(=O)N[C@@H](CC(C)C)C(=O)N[C@H](C(=O)N[C@@H](Cc1ccc(O)cc1)C(=O)N[C@@H](C)C(=O)N[C@@H](CCCNC(=N)N)C(N)=O)C(C)C", "note": "[Ac-LP20-Ala8, Ac-βA-RWMLVYAR-CONH2] (Ac-[βAla]RWMLVYAR-NH2)", "values": [{"measurement": "PPI (%) mycelium", "value": "10.57 ± 9.49", "unit": "%"}]}, {"smiles": "CSCC[C@H](NC(=O)[C@H](Cc1c[nH]c2ccccc12)NC(=O)[C@H](CCCNC(=N)N)NC(=O)CCNC(C)=O)C(=O)N[C@@H](CC(C)C)C(=O)N[C@H](C(=O)N[C@@H](Cc1ccc(O)cc1)C(=O)N[C@@H](CCCNC(=N)N)C(=O)N[C@@H](C)C(N)=O)C(C)C", "note": "[Ac-LP20-Ala9, Ac-βA-RWMLVYRA-CONH2] (Ac-[βAla]RWMLVYRA-NH2)", "values": [{"measurement": "PPI (%) mycelium", "value": "10.57 ± 9.49", "unit": "%"}]}, {"smiles": "CC(=O)NCCC(=O)N[C@@H](C)C(=O)N[C@@H](CCCNC(=N)N)C(=O)N[C@@H](CC(C)C)C(=O)N[C@@H](CCCNC(=N)N)C(=O)N[C@@H](Cc1c[nH]c2ccccc12)C(=O)N[C@@H](CC(C)C)C(=O)N[C@@H](CCCNC(=N)N)C(=O)N[C@H](C(N)=O)C(C)C", "note": "[Ac-LP32-Ala2, Ac-βA-ARLRWLRV-CONH2] (Ac-[βAla]ARLRWLRV-NH2)", "values": [{"measurement": "PPI (%) micelio", "value": "74.81 ± 3.63", "unit": "%"}]}, {"smiles": "CC(=O)NCCC(=O)NCC(=O)N[C@@H](C)C(=O)N[C@@H](CC(C)C)C(=O)N[C@@H](CCCNC(=N)N)C(=O)N[C@@H](Cc1c[nH]c2ccccc12)C(=O)N[C@@H](CC(C)C)C(=O)N[C@@H](CCCNC(=N)N)C(=O)N[C@H](C(N)=O)C(C)C", "note": "[Ac-LP32-Ala3, Ac-βA-GALRWLRV-CONH2] (Ac-[βAla]GALRWLRV-NH2)", "values": [{"measurement": "PPI (%) micelio", "value": "58.78 ± 3.94", "unit": "%"}]}, {"smiles": "CC(=O)NCCC(=O)NCC(=O)N[C@@H](CCCNC(=N)N)C(=O)N[C@@H](C)C(=O)N[C@@H](CCCNC(=N)N)C(=O)N[C@@H](Cc1c[nH]c2ccccc12)C(=O)N[C@@H](CC(C)C)C(=O)N[C@@H](CCCNC(=N)N)C(=O)N[C@H](C(N)=O)C(C)C", "note": "[Ac-LP32-Ala4, Ac-βA-GRARWLRV-CONH2] (Ac-[βAla]GRARWLRV-NH2)", "values": [{"measurement": "PPI (%) micelio", "value": "56.49 ± 10.10", "unit": "%"}]}]}
